Values quoted from earlier work in patent publication US9180191B2, “Treatment of suicidal ideation or behavior using inhibitors of nicotinic acetylcholine receptors” (UNIVERSITY OF SOUTH FLORIDA, priority 2009, dated 2015).
Where two headings read alike, the source gives them in different places.

Experiments:
[1] = major depressive disorder, inadequate response to prior antidepressant, two 6 week studies
[2] = for teratogen class: FDA Approved Labeling Text
[3] = for risk of neuroleptic malignant syndrome: patients receiving the drug
[4] = system: brain-derived neurotrophic factor (BDNF); details: in vivo
[5] = not given; remark: listed apart in the source
[6] = system: physiological response to nicotine; details: chronic administration, rodents
[7] = smoking cessation
[8] = system: muscarinic cholinergic receptors
[9] = system: serotonergic, dopaminergic, and a-adrenergic receptors
[10] = not given; remark: listed apart in the source
[11] = for reducing suicidal ideation versus placebo: week 8 (endpoint), p<0.001
[12] = bipolar I or II disorder, acute bipolar depression
[13] = treatment resistant psychotic bipolar patients, 24 months of observation
[14] = schizophrenic patients with persistent ongoing symptoms
[15] = not given; remark: listed apart in the source
[16] = bipolar I, manic and mixed symptoms
[17] = clinical trials in schizophrenia

Q: With `O=C1CCc2ccc(OCCCCN3CCN(c4cccc(Cl)c4Cl)CC3)cc2N1` [aripiprazole] as the compound, how does the “efficacy versus placebo as adjunctive therapy with antidepressants” value [1] read?
A: superior to placebo

Q: What about the teratogen class [2] of the same compound?
A: Class-C teratogen

Q: What about the “most commonly observed side effects” value ([3]; clinical trials in mood disorders (bipolar I disorder and major depressive disorder)) of the same compound?
A: akathisia, sedation, restlessness, tremor, insomnia, constipation, fatigue, blurred vision and extrapyramidal disorder

Q: And the “risk of neuroleptic malignant syndrome” value [3]?
A: extremely rare

Q: And the “efficacy versus placebo in acute use” value (bipolar I, manic and mixed symptoms, 3 week trials)?
A: rapid and significant advantage compared to placebo

Q: And the “efficacy versus placebo as adjunctive therapy (with lithium or valproate)” value (bipolar I, manic or mixed state, inadequate improvement on mood stabilizer monotherapy)?
A: superior to placebo

Q: And the “profile and tolerability with long-term use” value (long-term use up to 6 months)?
A: favorable profile and tolerability

Q: Which “effect on brain BDNF levels” value [4] does the source give for `O=C([O-])[O-].[Li+].[Li+]` [lithium, Lithium carbonate] here?
A: increase brain BDNF levels

Q: And the use in pregnancy ([2]; pregnancy)?
A: associated with neural tube defects

Q: And the “fatality rate due to suicide after discontinuing lithium compared to the rate during lithium maintenance” value ([5]; after discontinuing lithium)?
A: 12.6 times higher

Q: And the “incidence of attempted and completed suicide compared to those who did not receive lithium” value ([5]; long-term lithium treatment)?
A: 13 fold lower

Q: And the effect on suicidality ([5]; recurrent unipolar major depressive disorder and bipolar disorder)?
A: consistently reduces suicidality

Q: What about the “physiological response to nicotine” value [6] of the same compound?
A: decreases their physiological response to nicotine

Q: And the “most commonly observed side effects” value ([3]; lithium, population not given)?
A: tremor, diarrhea, polydipsia, polyuria and nausea

Q: For `c1cnc2cc3c(cc2n1)[C@@H]1CNC[C@H]3C1` [varenicline], which “risk of suicidality relative to other treatments (i.e., buproprion, Zyban)” value [7] is on record?
A: increase in the risk of suicidality

Q: With `CN1CC2c3ccccc3Oc3ccc(Cl)cc3C2C1` (stereo not shown) [asenapine] as the compound, how does the “affinity for muscarinic cholinergic receptors” value [8] read?
A: no appreciable affinity

Q: And the “affinity for serotonergic, dopaminergic, and a-adrenergic receptors” value [9]?
A: high affinity

Q: What about the teratogen class [2] of the same compound?
A: Class-C teratogen

Q: What about the “efficacy versus olanzapine in extended use” value [10, 16] of the same compound?
A: efficacy comparable to olanzapine

Q: And the “efficacy versus placebo in acute use” value [10, 16]?
A: rapid and significant advantage compared to placebo

Q: And the “efficacy versus placebo as adjunctive therapy” value ([10]; bipolar patients with inadequate improvement on mood stabilizer monotherapy)?
A: superior to placebo

Q: And the “profile and tolerability with long-term use” value ([10]; long-term use)?
A: favorable profile and tolerability

Q: What about the “most commonly observed side effects” value [3, 17] of the same compound?
A: anxiety, somnolence, EPS, dizziness, constipation, nausea, dyspepsia, rhinitis, rash, and tachycardia

Q: What about the “risk of neuroleptic malignant syndrome” value [3] of the same compound?
A: extremely rare

Q: Which “reducing suicidal ideation versus placebo” value ([11]; 300 mg/day) does the source give for `OCCOCCN1CCN(C2=Nc3ccccc3Sc3ccccc32)CC1` [quetiapine] here?
A: more effective than placebo

Q: What about the “reducing suicidal ideation versus placebo” value ([11]; 600 mg/day) of the same compound?
A: more effective than placebo

Q: And the “mean percent reduction in suicidal thoughts” value ([11]; 542 outpatients, bipolar I and II depression, placebo approximately 30%)?
A: approximately 60%

Q: What about the “reduction in suicidal ideation relative to placebo, item 10 on the MADRS” value ([11]; bipolar I and II depression) of the same compound?
A: approximately twice

Q: And the “reducing depressive and anxiety symptoms versus placebo” value [12]?
A: superior to placebo

Q: What about the teratogen class [2] of the same compound?
A: Class-C teratogen

Q: And the suicidality [13]?
A: effective in lowering suicidality

Q: What about the “depressive symptoms versus haloperidol” value [14] of the same compound?
A: reduce depressive symptoms more than haloperidol

Q: And the “efficacy versus placebo in combination with divalproex” value ([15]; adolescent patients with acute bipolar I mania)?
A: superior to placebo

Q: What about the “efficacy versus placebo in combination with lithium or divalproex” value ([15]; hospitalized adult patients with acute mania) of the same compound?
A: superior to placebo

Q: What about the “efficacy versus placebo as monotherapy in acute bipolar mania” value ([15]; hospitalized patients with bipolar I disorder, two 12-week trials) of the same compound?
A: superior to placebo

Q: What about the “most commonly observed side effects” value [3, 17] of the same compound?
A: anxiety, somnolence, EPS, dizziness, constipation, nausea, dyspepsia, rhinitis, rash, and tachycardia

Q: And the “risk of neuroleptic malignant syndrome” value [3]?
A: extremely rare
